Numbers after ± are expanded uncertainties.
Conditions: Liquid, Brillouin Light Scattering

CC(C)OC(C)C [diisopropyl ether]
Conditions	speed of sound [m/s]
302.38 K, 10000 kPa	1087.1 ± 15
302.39 K, 4000 kPa	1011.9 ± 14
302.48 K, 5500 kPa	1029.7 ± 14
302.8 K, 8500 kPa	1052.4 ± 15
302.91 K, 2500 kPa	1002.7 ± 14
302.96 K, 1000 kPa	986.08 ± 14
303.07 K, 7000 kPa	1037.8 ± 14
307.45 K, 4000 kPa	987.23 ± 14
307.61 K, 10000 kPa	1066.1 ± 15
307.86 K, 5500 kPa	1009.4 ± 14
307.87 K, 8500 kPa	1038.9 ± 14
308 K, 1000 kPa	965.01 ± 13
308.01 K, 7000 kPa	1020.5 ± 14
308.28 K, 2500 kPa	974.68 ± 13
312.8 K, 10000 kPa	1051 ± 15
312.81 K, 8500 kPa	1010.4 ± 14
312.88 K, 7000 kPa	995.2 ± 14
312.91 K, 2500 kPa	961.97 ± 13
312.92 K, 5500 kPa	979.14 ± 14
313.05 K, 1000 kPa	943.07 ± 13
313.14 K, 4000 kPa	969.4 ± 13
317.72 K, 10000 kPa	1030.2 ± 14
318.01 K, 5500 kPa	968.08 ± 13
318.11 K, 1000 kPa	924.03 ± 13
318.13 K, 8500 kPa	996.14 ± 14
318.14 K, 2500 kPa	928.92 ± 13
318.38 K, 7000 kPa	974.91 ± 14
318.49 K, 4000 kPa	951.1 ± 13
322.82 K, 10000 kPa	1007.1 ± 14
323.15 K, 7000 kPa	960.56 ± 13
323.3 K, 8500 kPa	972.88 ± 14
323.31 K, 2500 kPa	912.04 ± 13
323.5 K, 5500 kPa	943.6 ± 13
323.62 K, 1000 kPa	901.5 ± 12
323.71 K, 4000 kPa	924.8 ± 13
327.56 K, 10000 kPa	994.72 ± 14
327.75 K, 8500 kPa	964.89 ± 13
327.97 K, 1000 kPa	881.1 ± 12
328.08 K, 2500 kPa	887.66 ± 12
328.1 K, 4000 kPa	901.06 ± 12
328.13 K, 7000 kPa	936.62 ± 13
328.17 K, 5500 kPa	923.15 ± 13
332.93 K, 10000 kPa	963.31 ± 13
332.94 K, 2500 kPa	869.98 ± 12
333.01 K, 7000 kPa	920.95 ± 13
333.08 K, 1000 kPa	855 ± 12
333.25 K, 8500 kPa	943.92 ± 13
333.31 K, 4000 kPa	888.08 ± 12
333.57 K, 5500 kPa	897.12 ± 12
337.63 K, 5500 kPa	882.64 ± 12
337.69 K, 1000 kPa	846.25 ± 12
337.75 K, 2500 kPa	857.76 ± 12
337.85 K, 10000 kPa	946.87 ± 13
337.89 K, 8500 kPa	917.48 ± 13
337.93 K, 4000 kPa	867.64 ± 12
338.11 K, 7000 kPa	896.43 ± 12
343.33 K, 1000 kPa	819.28 ± 11
343.57 K, 8500 kPa	904.65 ± 13
343.67 K, 4000 kPa	845.53 ± 12
343.79 K, 7000 kPa	878.38 ± 12
343.82 K, 2500 kPa	827.84 ± 11
343.88 K, 10000 kPa	923.89 ± 13
343.97 K, 5500 kPa	864.56 ± 12
347.31 K, 10000 kPa	915.04 ± 13
347.41 K, 2500 kPa	807.03 ± 11
347.59 K, 1000 kPa	802.59 ± 11
347.69 K, 4000 kPa	832.86 ± 12
347.76 K, 8500 kPa	887.44 ± 12
347.81 K, 5500 kPa	843.4 ± 12
347.81 K, 7000 kPa	867.06 ± 12
352.94 K, 4000 kPa	804.7 ± 11
353.38 K, 8500 kPa	862.02 ± 12
353.45 K, 1000 kPa	775.82 ± 11
353.59 K, 2500 kPa	792.6 ± 11
353.6 K, 5500 kPa	819.82 ± 11
353.71 K, 7000 kPa	845.61 ± 12
353.81 K, 10000 kPa	893.76 ± 12
358.06 K, 10000 kPa	870.54 ± 12
358.52 K, 8500 kPa	846.91 ± 12
358.55 K, 5500 kPa	807.15 ± 11
358.76 K, 1000 kPa	755.17 ± 10
358.93 K, 2500 kPa	760.2 ± 11
358.96 K, 4000 kPa	782.98 ± 11
359.03 K, 7000 kPa	821.85 ± 11
362.67 K, 1000 kPa	737.96 ± 10
362.78 K, 5500 kPa	786.13 ± 11
362.9 K, 10000 kPa	855.96 ± 12
362.95 K, 8500 kPa	828.91 ± 12
363.08 K, 7000 kPa	809.07 ± 11
363.21 K, 2500 kPa	747.41 ± 10
363.41 K, 4000 kPa	767.15 ± 11
367.56 K, 7000 kPa	793.16 ± 11
367.57 K, 5500 kPa	769.09 ± 11
367.78 K, 4000 kPa	751.56 ± 10
367.82 K, 8500 kPa	809.14 ± 11
367.96 K, 10000 kPa	835.29 ± 12
368.03 K, 1000 kPa	715.17 ± 9.9
368.26 K, 2500 kPa	726.3 ± 10
372.68 K, 10000 kPa	816.27 ± 11
372.8 K, 7000 kPa	771.64 ± 11
373.15 K, 5500 kPa	753.88 ± 11
373.21 K, 8500 kPa	788.43 ± 11
373.29 K, 2500 kPa	712.12 ± 9.9
373.37 K, 4000 kPa	726.56 ± 10
373.57 K, 1000 kPa	697.04 ± 9.7
377.41 K, 1000 kPa	679.66 ± 9.4
377.54 K, 7000 kPa	749.64 ± 10
377.85 K, 4000 kPa	712.4 ± 9.9
377.85 K, 5500 kPa	728.98 ± 10
377.97 K, 8500 kPa	770.84 ± 11
378.05 K, 2500 kPa	690.57 ± 9.6
378.3 K, 10000 kPa	803.55 ± 11
382.72 K, 1000 kPa	654.9 ± 9.1
382.77 K, 7000 kPa	734.01 ± 10
382.78 K, 10000 kPa	787 ± 11
382.83 K, 5500 kPa	710.48 ± 9.9
382.88 K, 8500 kPa	754.35 ± 11
383.06 K, 2500 kPa	665.89 ± 9.3
383.26 K, 4000 kPa	691.26 ± 9.6
387.78 K, 4000 kPa	674.22 ± 9.4
388 K, 7000 kPa	713.08 ± 9.9
388.09 K, 5500 kPa	694.59 ± 9.7
388.3 K, 8500 kPa	735.65 ± 10
388.31 K, 2500 kPa	653.57 ± 9.1
388.68 K, 1000 kPa	634.3 ± 8.8
388.86 K, 10000 kPa	760.66 ± 11
392.26 K, 2500 kPa	635.1 ± 8.8
392.28 K, 5500 kPa	675.48 ± 9.4
392.33 K, 7000 kPa	701.13 ± 9.8
392.5 K, 4000 kPa	658.79 ± 9.2
392.65 K, 10000 kPa	747.04 ± 10
392.79 K, 8500 kPa	722.68 ± 10
393.19 K, 1000 kPa	615.78 ± 8.6
397.81 K, 4000 kPa	632.66 ± 8.8
397.95 K, 2500 kPa	613.31 ± 8.5
398.22 K, 5500 kPa	653.67 ± 9.2
398.25 K, 1000 kPa	589.15 ± 8.2
398.32 K, 8500 kPa	702.44 ± 9.9
398.37 K, 7000 kPa	674.76 ± 9.5
398.9 K, 10000 kPa	728.83 ± 10
402.67 K, 7000 kPa	662.53 ± 9.3
402.77 K, 5500 kPa	638.47 ± 9
402.88 K, 2500 kPa	590.27 ± 8.2
403.23 K, 8500 kPa	683.98 ± 9.6
403.4 K, 4000 kPa	612.03 ± 8.5
403.45 K, 1000 kPa	570.56 ± 8
403.45 K, 10000 kPa	709.11 ± 9.9
407.64 K, 5500 kPa	623.08 ± 8.8
407.75 K, 10000 kPa	693.65 ± 9.7
408.1 K, 7000 kPa	642.44 ± 9
408.23 K, 8500 kPa	667.12 ± 9.4
408.31 K, 4000 kPa	592.12 ± 8.3
408.37 K, 2500 kPa	571.15 ± 8
408.65 K, 1000 kPa	544.68 ± 7.6
412.43 K, 2500 kPa	550.12 ± 7.7
412.43 K, 5500 kPa	606.9 ± 8.5
412.66 K, 1000 kPa	530.21 ± 7.4
412.7 K, 4000 kPa	576.58 ± 8.1
412.83 K, 10000 kPa	681.56 ± 9.6
412.95 K, 8500 kPa	646.94 ± 9.1
413.28 K, 7000 kPa	622.07 ± 8.7
418.22 K, 2500 kPa	532.67 ± 7.5
418.42 K, 8500 kPa	627.35 ± 8.8
418.54 K, 5500 kPa	583.39 ± 8.2
418.59 K, 10000 kPa	659.95 ± 9.3
418.87 K, 7000 kPa	603.43 ± 8.5
418.91 K, 4000 kPa	554.62 ± 7.8
419.01 K, 1000 kPa	502.48 ± 7
423.21 K, 1000 kPa	482.17 ± 6.8
423.5 K, 4000 kPa	536.96 ± 7.5
423.62 K, 8500 kPa	613.79 ± 8.6
423.75 K, 7000 kPa	590.42 ± 8.3
423.79 K, 5500 kPa	567.31 ± 8
423.9 K, 10000 kPa	640.34 ± 9
424.09 K, 2500 kPa	502.49 ± 7
427.41 K, 7000 kPa	578.56 ± 8.2
427.66 K, 1000 kPa	460.04 ± 6.5
427.92 K, 8500 kPa	597.25 ± 8.4
428.03 K, 4000 kPa	520.63 ± 7.3
428.26 K, 2500 kPa	490.5 ± 6.9
428.45 K, 5500 kPa	546.98 ± 7.8
428.53 K, 10000 kPa	625.16 ± 8.8
432.35 K, 10000 kPa	618.58 ± 8.8
432.63 K, 5500 kPa	529.89 ± 7.5
432.77 K, 8500 kPa	581.79 ± 8.2
432.83 K, 7000 kPa	558.11 ± 7.9

Conditions	speed of sound [m/s]
303.08 K	986.38 ± 14
318.27 K	915.66 ± 13
333.62 K	852.5 ± 12
347.96 K	790.74 ± 11
362.87 K	731.21 ± 10
378.14 K	662.26 ± 9.2
393.15 K	593.47 ± 8.2
402.97 K	552.35 ± 7.7
412.75 K	514.15 ± 7.2
422.75 K	469.11 ± 6.5
432.74 K	426.77 ± 6

— the NIST ThermoML archive (doi:10.1016/j.jct.2016.09.005)
